Reference: US20260193647A1, “MIRNA-BASED CANCER THERAPY WITH A TUMOR-NAVIGATING PEPTIDE” (The Board of Trustees of the Universities of Illinois, priority 2022, published 2026)

Key:
miR-20a = test: Circulating miR-20a in sera of treated mice; type: in vivo; conditions: early-phase treatment group, 1 mg/kg; vs tumor-free mice (P=0.78)
From the text: Micro RNA enriched fraction was extracted using the miRNeasy Mini Kit (Qiagen, Catalog #217004) following the manufacturer's instructions. Stem loop real-time qPCR was used to analyze miRNA expression. We designed miR-20a stem loop RT primers and amplification primers according to a previously described method 79. cDNA was synthesized from extracted RNA using unique stem loop RT primers. The sequence of the stem loop primer for miR-20a was 5′-[…]-3′ (SEQ ID NO:7). Reverse transcriptase reactions contained the following reagents: 10 ng of RNA sample, 60 nM stem-loop RT primer, 1×RT buffer, 0.25 mM dNTP, and 4 U/μl reverse transcriptase. Reactions were performed by incubation at 16° C. for 30 min, 42° C. for 30 min and 85° C. for 5 min. Real-time PCR (7300 Real time PCR Systems, Applied Biosystems, CA) was performed using the specific forward primer for miR-20a (5′-[…]-3′ (SEQ ID NO:8)) and a universal reverse primer (5′-GTGCA GGGTC CGAGGT-3′ (SEQ ID NO:9)). The 20-μl PCR mixture included 1×SYBR Premix (Invitrogen), 2 μl of RT products and each forward and reverse primer at 10 nM. Reactions were performed by incubation in a 96-well plate at 95° C. for 30 sec, followed by 35 cycles of 95° C. for 30 sec and 60° C. for 30 sec. U6 was used as an internal control to normalize the level of target miRNAs. […]

[1] = test system: SJ-GBM2 cells, CHLA-200 cells and astrocytes; test: Cellular entry by confocal microscopy; type: cell-based, human; conditions: 20 μM Alexa Fluor labeled, 2 hr, 37° C.; pGBM cells vs normal astrocytes
Protocol: p28 or AmiR20-p28 were dissolved in PBS mixed with Alexa Fluor 568 dye (Invitrogen) at a 1:2 peptide/dye ratio 37. Sodium bicarbonate (pH 8.5) was added and incubated at 4° C. with continuous stirring. Alexa Fluor 568 labeled p28 and AmiR20-p28 were dialyzed against cold-PBS using Slide-A-Lyzer Dialysis Cassettes (Pierce Biotechnology). Similarly, p28 was labeled with ICG as described previously.
SJ-GBM2 cells, CHLA-200 cells and astrocytes (2×10^4 cells/well) were cultured on glass slides placed in 24-well plates. After overnight culture, the cells were washed with PBS and incubated with 20 μM Alexa Fluor 568-labeled p28 peptide in medium (5% FBS and without phenol red) for 2 hr at 37° C. Cells were fixed with 2% formalin for 10 min. After washing, slides were prepared and mounted with Vectashield with DAPI (Vector Laboratories, Catalog #94010). Slides were examined by an LSM 710 confocal laser scanning microscope (Zeiss). Images were processed using ZEN software (ZEISS ZEN Lite). As for a GSC marker, the slides were first incubated with Alexa Fluor 568-labeled AmiR20-p28 for 2 hr at 37° C. Cells were fixed with 2% formalin for 10 min. After washing, slides were incubated with blocking buffer for 1 hr at room temperature, followed by consecutive staining with anti-CD133 antibody (1:500, R&D Systems FAB11331G). Slides were washed and mounted with Vectashield containing DAPI. […]

AmiR20-p28: BBB-permeable tumor-navigating CPP p28 (Cys-p28) covalently linked to 2′ O-methyl antisense miR-20a (5′-maleimide)
serum miR-20a level (miR-20a): not significantly different from the basal level in the tumor-free mice
cellular entry (confocal images) [1]: preferential entry
